According to patent US12653837B2, “Use of inhaled nitric oxide and oxygen for the treatment of pulmonary hypertension” (Bellerophon Pulse Technologies LLC, priority 2017, dated 2026):

What was measured:
[1] = tested on: symptomatic subjects with PAH; assay: Oxygen desaturation (drop in SpO2 from beginning to end of six-minute walk test), Phase 2 study IK-7001-PAH-201; format: in vivo, human
Description: (§1) This study was a Phase 2, placebo controlled, double-blind, randomized, clinical study to determine the safety, tolerability and efficacy of pulsed iNO versus placebo as add-on therapy in symptomatic subjects with PAH (IK-7001-PAH-201; NCT01457781). The primary outcome of this study was change from baseline in pulmonary vascular resistance (PVR). Secondary outcome measure included change in 6MWD, time to first clinical worsening event (TTCW), change in WHO functional class, change in Borg Dyspnea Score (BDS) and change in patient reported outcome (PRO) scores by the SF-36 short form version 2 and the Cambridge Pulmonary Hypertension Outcome Review (CAMPHOR).
(§2) PAH subjects were administered pulsed iNO at a dose of 25 or 75 mcg/IBW kg/hr for up to 24 hours a day for up to 16 weeks, or received pulsed placebo (99.999% N2) for up to 24 hours a day for up to 16 weeks. The dose of 25 mcg/kg IBW/hr was administered from a mini-cylinder having 2,440 ppm NO and the dose of 75 mcg/kg IBW/hr was administered from a mini-cylinder having 4,880 ppm NO.
(§3) All subjects were receiving at least one approved PAH therapy and were clinically symptomatic from PAH (e.g. onset or increased dyspnea on exertion, dizziness, near-syncope, syncope, chest pain or peripheral edema).
Oxygen desaturation was measured as the drop in SpO2 level from the beginning to the end of the six-minute walk test (6MWT). Oxygen desaturation was measured at baseline and after 16 weeks of chronic treatment with iNO at a dose of 75 mcg/kg IBW/hr (iNO 75) or 25 mcg/kg IBW/hr (iNO 25) or placebo.

[2] = tested on: symptomatic subjects with PAH; assay: Exercise capacity (change in 6MWD from baseline to 16 weeks), Phase 2 study IK-7001-PAH-201; format: in vivo, human
Description: as §1, §2, §3
Also shown is the change in exercise capacity, measured as the change in 6MWD from baseline to 16 weeks.

Q: Which “Change in Oxygen Desaturation (SpO2)” value ([1]; iNO 25 mcg/kg IBW/hr, pulsed, up to 24 h/day, baseline to 16 weeks (LOCF), PAH subjects) does the source give for `[N]=O` [iNO, nitric oxide] here?
A: −0.14

Q: And the “Change in Oxygen Desaturation (SpO2)” value ([1]; iNO 75 mcg/kg IBW/hr, pulsed, up to 24 h/day, baseline to 16 weeks (LOCF), all PAH subjects)?
A: −2.19

Q: What about the “Change in Oxygen Desaturation (SpO2)” value ([1]; iNO 75 mcg/kg IBW/hr, No LTOT, baseline to 16 weeks, PAH subjects) of the same molecule?
A: 0.40

Q: What about the “Change in Oxygen Desaturation (SpO2)” value ([1]; iNO 75 mcg/kg IBW/hr, compliant >12 hrs per day, No LTOT, baseline to 16 weeks, PAH subjects) of the same molecule?
A: 1.33

Q: What about the “Change in Oxygen Desaturation (SpO2)” value ([1]; iNO 75 mcg/kg IBW/hr, compliant >12 hrs per day, with LTOT, baseline to 16 weeks, PAH subjects) of the same molecule?
A: −3.36

Q: What about the “Change in Oxygen Desaturation (SpO2)” value ([1]; iNO 75 mcg/kg IBW/hr, with LTOT, baseline to 16 weeks, PAH subjects) of the same molecule?
A: −3.00

Q: And the “Change in 6MWD (meters)” value ([2]; iNO 25 mcg/kg IBW/hr, pulsed, up to 24 h/day, PAH subjects)?
A: 4.7 meters

Q: What about the “Change in 6MWD (meters)” value ([2]; iNO 75 mcg/kg IBW/hr, No LTOT, PAH subjects) of the same molecule?
A: −20.8 meters

Q: What about the “Change in 6MWD (meters)” value ([2]; iNO 75 mcg/kg IBW/hr, compliant >12 hrs per day, No LTOT, PAH subjects) of the same molecule?
A: −29.7 meters

Q: And the “Change in 6MWD (meters)” value ([2]; iNO 75 mcg/kg IBW/hr, compliant >12 hrs per day, with LTOT, PAH subjects)?
A: 52.4 meters

Q: What about the “Change in 6MWD (meters)” value ([2]; iNO 75 mcg/kg IBW/hr, pulsed, up to 24 h/day, all PAH subjects) of the same molecule?
A: 22.8 meters

Q: What about the “Change in 6MWD (meters)” value ([2]; iNO 75 mcg/kg IBW/hr, with LTOT, PAH subjects) of the same molecule?
A: 34.9 meters
